Blank lines part the entries; values can stand above or below the molecule they belong to.
Legend:
[1] = test system: COX-2-positive BxPC3 cells; test: Cell uptake of [18F]FMTP in COX-2-positive BxPC3 cells, with blocking; assay type: cell-based, human
COX-2 [2] = settings: cited from earlier work
xenografts = settings: cited from earlier work
[3] = test system: COX-2-negative PANC-1 cells; test: Cell uptake of [18F]FMTP in COX-2-negative PANC-1 cells, with blocking; assay type: cell-based, human
Protocol: (§1) The radiochemical synthesis of [^18F]FMTP and [^18F]FMPP were optimized using a chlorine-to-fluorine displacement method, by reacting ^18F-fluoride/K222/K2CO3 with the corresponding chlorine precursor molecules. […] Dynamic microPET image acquisition was performed in anesthetized nude mice, LPS-induced neuroinflammation mice, and PBS-administered control mice using […].
BxPC3 and PANC-1 human pancreas carcinoma cell lines were plated on a 24-well plate at 2×10^5 cells/well. After 48 hours, [^18F]FMTP was added (2.0 μCi/mL) to the cell medium for 30 minutes. […] After incubation with [^18F]FMTP, cells were washed 4 times with cold PBS, lysed with 0.1 N NaOH, and counted in a gamma counter (Hidex AMG, LabLogic, Tampa, Fla.).
Proof-of-concept and selectivity of [^18F]FMTP binding to COX-2 was examined by evaluating the tracer uptake in COX-2-positive BxPC3 and a control COX-2-negative PANC1 human pancreatic carcinoma cell lines. FIG. 2 illustrates a >2-fold uptake of [^18F]FMTP in BxPC3 cells compared with PANC1 cells. Values shown in FIG. 2 are the mean±standard deviation (“SD”) from four independent experiments.

COX-2 [4] = target: T1, COX-2 (Mus musculus, UniProt Q05769); test: MicroPET imaging of [18F]FMTP in LPS-induced neuroinflammation mice vs PBS-treated mice; assay type: in vivo; settings: 24 hours after intracranial 5 μg LPS (FIG. 5)
T1 construct: from tissue; host or cells: brain of living male white mice, LPS- or PBS-injected
T1 sequence (Q05769 18-604): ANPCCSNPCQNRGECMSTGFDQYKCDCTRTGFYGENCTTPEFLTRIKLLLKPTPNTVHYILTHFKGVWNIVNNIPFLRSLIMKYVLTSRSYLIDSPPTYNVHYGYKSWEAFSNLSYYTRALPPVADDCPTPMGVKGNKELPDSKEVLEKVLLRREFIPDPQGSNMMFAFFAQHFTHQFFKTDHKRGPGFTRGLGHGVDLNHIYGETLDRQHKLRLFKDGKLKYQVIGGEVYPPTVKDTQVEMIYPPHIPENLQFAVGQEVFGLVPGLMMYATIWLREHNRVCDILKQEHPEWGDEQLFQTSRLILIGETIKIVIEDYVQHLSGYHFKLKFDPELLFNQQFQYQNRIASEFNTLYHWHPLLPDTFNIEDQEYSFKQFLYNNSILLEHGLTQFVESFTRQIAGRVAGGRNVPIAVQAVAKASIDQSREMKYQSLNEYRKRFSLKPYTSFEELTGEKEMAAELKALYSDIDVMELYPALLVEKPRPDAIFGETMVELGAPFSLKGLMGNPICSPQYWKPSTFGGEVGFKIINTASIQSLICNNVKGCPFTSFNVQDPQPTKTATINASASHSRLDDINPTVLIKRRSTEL
Protocol: as §1
Animals (male white mice) were anesthetized with isoflurane (l %-2% isoflurane in 100% oxygen) using a nose cone, and a 29-gauge needle connected to a catheter was placed into the lateral tail vein. For neuroinflammation, mice were stereotactically injected with 5 μg of LPS or PBS (controls) in the brain and imaging experiments conducted 24 hours later. […] The standardized uptake values (“SUVs”) were estimated using a calibration factor calculated from the phantom study and time activity curves (“TACs”) were derived from VOIs in the series of reconstructed images.
FIGS. 3A-3D show the summed early frames (0-10 minute) and total frames (0-40 minute) of microPET images. […] TACs also indicated an initial rapid influx of radioactivity followed by rapid washout (FIG. 4). […] Highest radioactivity outside the heart was found in liver, and the delay to peak at 5-10 minutes was probably due to the accumulation of radioactive metabolite(s). […]

[5] = Dynamic microPET imaging of [18F]FMTP in normal mice; assay type: in vivo
Protocol: as §1
Animals (male white mice) were anesthetized with isoflurane (l %-2% isoflurane in 100% oxygen) using a nose cone, and a 29-gauge needle connected to a catheter was placed into the lateral tail vein. For neuroinflammation, mice were stereotactically injected with 5 μg of LPS or PBS (controls) in the brain and imaging experiments conducted 24 hours later. The animal was placed in prone position on the platform of the scanner and moved into the center of the field of view guided by laser beam calibration. Immediately after scan start, [^18F]FMTP (˜2.5 MBq […] in 20% ethanol-saline solution) was injected through the tail-vein catheter manually. The error caused by the injector and catheter was corrected by subtracting the remaining dose. 40-minute dynamic imaging was acquired on a microPET scanner (Siemens Inveon). The acquired list-mode data were reconstructed with 3D ordered subset expectation maximization (OSEM) algorithm using the software of Siemens Inveon Acquisition Workplace with a framing protocol of 2×30 seconds, 4×60 seconds, 3×120 seconds, 3×180 seconds, and 4×300 seconds. Using PMOD software (version 4.0, Switzerland), three-dimensional ellipsoid volume of interests (“VOIs”) ranging from 2-to-6 mm were placed manually at the center of the brain, heart (blood-pool), liver, proximal humerus (bone), and posterior cervical muscle. The standardized uptake values (“SUVs”) were estimated using a calibration factor calculated from the phantom study and time activity curves (“TACs”) were derived from VOIs in the series of reconstructed images.
FIGS. 3A-3D show the summed early frames (0-10 minute) and total frames (0-40 minute) of microPET images. Crosses in FIGS. 3A-3D represent the region with brain. […] TACs also indicated an initial rapid influx of radioactivity followed by rapid washout (FIG. 4). The uptake of [^18F]FMTP peaked around 1 minute in heart and brain, and then decreased rapidly. The absence of retention of [^18F]FMTP activity in these organs was predicted due to low COX-2 expression in normal mouse brain. Highest radioactivity outside the heart was found in liver, and the delay to peak at 5-10 minutes was probably due to the accumulation of radioactive metabolite(s). […] The binding of [^18F]FMTP in LPS-induced neuroinflammation in mice was studied in comparison to vehicle (PBS)-treated-mice. Intracranial injection of LPS in mice is known to generate COX-2 induction and neuroinflammation after around 24 hours. Therefore, PET imaging of LPS treated mice was performed after 24 hours with [^18F]FMTP, and an approximately 2-fold increase of tracer binding was found in brain compared with PBS-treated mice (FIG. 5). […] MicroPET data correlated with autoradiography performed in brain sections of microPET imaged animals using [^18F]FMTP.

COX-2 [6] = target: T2, COX-2 (Homo sapiens, UniProt P35354); settings: cited from earlier work
T2 sequence (P35354 18-604): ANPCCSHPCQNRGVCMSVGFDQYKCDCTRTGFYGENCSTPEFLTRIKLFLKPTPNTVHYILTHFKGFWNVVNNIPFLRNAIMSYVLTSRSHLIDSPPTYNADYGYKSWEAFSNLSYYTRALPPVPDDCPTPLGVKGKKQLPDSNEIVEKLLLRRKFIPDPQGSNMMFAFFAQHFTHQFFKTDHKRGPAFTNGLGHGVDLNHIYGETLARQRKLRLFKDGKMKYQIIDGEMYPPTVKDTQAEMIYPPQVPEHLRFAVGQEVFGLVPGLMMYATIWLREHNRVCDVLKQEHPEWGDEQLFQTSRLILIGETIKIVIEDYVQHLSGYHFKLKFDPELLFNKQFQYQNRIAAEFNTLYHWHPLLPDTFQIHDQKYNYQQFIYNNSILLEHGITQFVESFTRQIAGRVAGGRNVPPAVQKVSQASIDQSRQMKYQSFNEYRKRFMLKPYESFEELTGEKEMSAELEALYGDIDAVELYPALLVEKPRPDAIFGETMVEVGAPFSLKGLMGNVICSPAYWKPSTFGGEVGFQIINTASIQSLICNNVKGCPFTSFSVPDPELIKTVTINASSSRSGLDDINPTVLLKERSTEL

COX-2 [7] = settings: baboon brain; cited from earlier work

Compound: CS(=O)(=O)c1ccc(-c2nc(F)cc(NCc3nccs3)n2)cc1 [FMTP]
- blocking of [18F]FMTP binding in BxPC3 cells ([1]; blocker 5 μM added 30 minutes before [18F]FMTP): substantially blocked

Compound: CS(=O)(=O)c1ccc(-c2nc(NCc3cccs3)cc(O[11CH3])n2)cc1 [[^11C]MC1, [^11C]-6-methoxy-2-(4-(methylsulfonyl)phenyl)-N-(thiophen-2-ylmethyl)pyrimidin-4-amine]
- binding to COX-2 in neuroinflammation (COX-2 [2]; animal models of neuroinflammation): increased binding to COX-2
- detection of constitutive or low level COX-2 in brain (COX-2 [2]; conditions without inflammation): failed to detect

Compound: CS(=O)(=O)c1ccc(-c2cc(C(F)(F)F)nc(NCc3ccc([18F])cc3)n2)cc1 [[^18F]Pyricoxib]
- binding in xenografts in vivo (xenografts): only modest binding
- uptake in brain (xenografts; in vivo): did not show significant uptake in brain

- increase of tracer binding in brain of LPS-treated compared with PBS-treated mice (COX-2 [4]): approximately 2 fold
- washout of activity from brain ([5]; microPET, 0-40 minute): fast washout
- BBB penetration ([5]; microPET, tail-vein injection): penetrated the BBB
- time of peak uptake in heart and brain ([5]; time activity curves (FIG. 4)): around 1 minute
- time of peak radioactivity in liver ([5]; time activity curves, delay ascribed to radioactive metabolite(s)): 5 to 10 min
Compound: CS(=O)(=O)c1ccc(-c2nc([18F])cc(NCc3nccs3)n2)cc1 [[^18F]FMTP, [^18F]-6-fluoro-2-(4-(methylsulfonyl)phenyl)-N-(thiazol-2-ylmethyl)pyrimidin-4-amine]
- binding to PANC1 cells ([3]; 2.0 μCi/mL, 30 minutes): negligible binding
- specific binding in PANC1 cells with FMTP or celecoxib block ([3]; blockers 5 μM): no specific binding
- uptake in spine and skeleton (de[18F]fluorination) ([5]; microPET): did not show uptake in spine and skeleton
- uptake of [18F]FMTP in BxPC3 cells compared with PANC1 cells ([1]; 2.0 μCi/mL, 30 minutes, mean of four independent experiments (FIG. 2)): > 2 fold

Compound: CS(=O)(=O)c1ccc(-c2nc(F)cc(NCc3nccs3)n2)cc1 [[^18F]FMTP, [^18F]-6-fluoro-2-(4-(methylsulfonyl)phenyl)-N-(thiazol-2-ylmethyl)pyrimidin-4-amine]
- IC50 (COX-2 [6]): 2.5 nM

Compound: CS(=O)(=O)c1ccc(-c2noc(C(F)(F)F)c2-c2ccccc2)cc1 [[^11C]TMI, [^11C]-3-(4-methylsulfonylphenyl)-4-phenyl-5-trifluoromethyl isoxazole]
- blocking of constitutive COX-2 level in brain (COX-2 [7]): partial blocking

Compound: COc1cc(NCc2cccs2)nc(-c2ccc(S(C)(=O)=O)cc2)n1 [MC1]
- specific binding in CNS and periphery organs (COX-2 [2]; cold (non-radiolabeled) MC1): no specific binding
